Laboratory results: patent publication US20180327367A1, “MACROCYCLIC BROAD SPECTRUM ANTIBIOTICS” (priority 2015, published 2018)
In brackets after ≈: the same amount, converted by molar mass. Read-outs that look alike come from different tables or passages of the source.

How the values were obtained:
Type in all cases: cell-based
[1] = system: Methicillin Resistant Staphylococcus aureus strain USA 300, NRS384; assay: Minimum inhibitory concentration, broth micro-dilution (CLSI), S. aureus; conditions: for MIC: Staphylococcus aureus, MRSA / NRS 384 / USA300, 22 h
Method: (§1) In vitro antimicrobial activity of each compound was determined by measuring minimal inhibitor concentrations (MICs) using the broth micro-dilution technique as approved by the Clinical and Laboratory Standards Institute (CLSI) (Methods for Dilution Antimicrobial Susceptibility Tests for Bacteria that Grow Aerobically; Approved Standard—Eighth Edition. CLSI document M07-A8. Wayne, Pa.: Clinical and Laboratory Standards; 2009). Antibacterial activity was measure against three strains of bacteria: a Methicillin Resistant Staphylococcus aureus strain USA 300, NRS384 (S. aureus); a strain of Escherichia coli MC4100 harboring the IMP4213 (E. coli IMP), which results in increased outer-membrane permeability (B Martin and Silhavy T. Imp/OstA is required for cell envelope biogenesis in Escherichia coli. (2002) Molecular Microbiology, 45(5), 1289-1302), and Escherichia coli ATCC 25922 (E. coli), a clinically relevant Gram-negative strain. Cells were inoculated onto plates of Trypyticase Soy Agar or Luria Agar respectively and grown at 35° C. for 20 hours. Inocula suspensions were prepared by scraping cells into 1 mL of testing media (cation adjusted Mueller Hinton Broth supplemented with 0.002% v/v Tween-80) and diluting to a final OD600 nm of 0.01.
(§2) Test compounds were prepared in DMSO at a concentration of 10 mg/mL. […] In protocol 2, the compound stocks were diluted into testing media at a concentration of 4 μg/mL and serial 2-fold dilutions were made in the same media, in 96-well U bottom microtiter dishes, for a total of 10 compound concentrations. In protocol 3, compound stocks were diluted into testing media at a concentration of 0.5 μg/mL, with serial 2-fold dilutions conducted as described above. […] Inocula suspensions were added to the 2-fold serial dilutions of test compounds to a final density of OD OD600 nm of 0.0005 and incubated at 35° C. for 22 hours.

[2] = system: Escherichia coli MC4100 harboring the IMP4213 (E. coli IMP); assay: microbe, parasite or virus in culture; conditions: for MIC (μg/mL) E. coli IMP: E. coli MC4100 IMP4213, increased outer-membrane permeability; for MIC: Escherichia coli, 22 h
Method: as §1, §2

[3] = system: Escherichia coli ATCC 25922; assay: Minimum inhibitory concentration, broth micro-dilution (CLSI), E. coli; conditions: for MIC: Escherichia coli, ATCC25922, 22 h
Method: Cells were inoculated onto plates of Trypyticase Soy Agar or Luria Agar respectively and grown at 35° C. for 20 hours. Inocula suspensions were prepared by scraping cells into 1 mL of testing media (cation adjusted Mueller Hinton Broth supplemented with 0.002% v/v Tween-80) and diluting to a final OD600 nm of 0.01.
as §2

[4] = MRSA USA 300 NRS384, 35° C., 22 hours
[5] = E. coli ATCC 25922, 35° C., 22 hours
[6] = MRSA USA 300 NRS384, 35° C., 22 hours, read-out: MIC (μg/mL) S. aureus
[7] = read-out: MIC (μg/mL) E. coli IMP, E. coli MC4100 IMP4213, increased outer-membrane permeability, 35° C., 22 hours
[8] = E. coli ATCC 25922, 35° C., 22 hours, read-out: MIC (μg/mL) E. coli

Compound | MIC [1, 6] [µg/mL] | MIC [2, 7] [µg/mL] | MIC [3, 8] [µg/mL] | also measured
Cc1cc(C2CC2c2ccccc2)ccc1C(=O)N[C@@H](CCN)C(=O)N(C)[C@@H]1C(=O)N[C@@H](C)C(=O)N[C@H](C(=O)NCC#N)Cc2ccc(OCCN)c(c2)-c2cc1ccc2OCCN (mixture of isomers) [Compound 439] | – | – | – | MIC (μg/mL) S. aureus [1, 4]: 0.047 µg/mL; MIC (μg/mL) E. coli IMP ([2]; 35° C., 22 hours): 0.0078 µg/mL; MIC (μg/mL) E. coli [3, 5]: 0.5 µg/mL
CCCCc1ccc(NC(=O)CC(CCN)C(=O)N(C)[C@@H]2C(=O)N[C@@H](C)C(=O)N[C@H](C(=O)NCC#N)Cc3ccc(OCCN)c(c3)-c3cc2ccc3OCCN)c(C)c1 (mixture of isomers) [Compound 456] | 0.25 | 0.5 | 64 | –
C[C@@H]1NC(=O)[C@@H](N(C)C(=O)[C@H](CCCCN)NC(=O)c2ccc(-c3ccc(Cl)cc3)cc2)c2ccc(OCC(O)CN)c(c2)-c2cc(ccc2OCC(O)CN)C[C@@H](C(=O)NCC#N)NC1=O (mixture of isomers) [Compound 515] | 0.094 | 0.063 | 4 | –
CCCCCCCCCC(=O)N[C@H](C(=O)N[C@@H](CCN)C(=O)N(C)[C@@H]1C(=O)N[C@@H](C)C(=O)N[C@H](C(=O)NCC#N)Cc2ccc(OCCN)c(c2)-c2cc1ccc2OCCN)C(C)O (single isomer, unassigned) [Compound 357-P1] | – | 0.5 (≈ 0.56 µM) | – | MIC ([1]; read-out: MIC (μg/mL) S. aureus, MRSA USA 300 NRS384, 35° C., 22 hours): 0.5 µg/mL (≈ 0.56 µM); MIC ([3]; read-out: MIC (μg/mL) E. coli, E. coli ATCC 25922, 35° C., 22 hours): 64 µg/mL (≈ 71.7 µM)
CCCCCCCc1ccc(C(=O)NC(CCNC)C(=O)N(C)[C@@H]2C(=O)N[C@@H](C)C(=O)N[C@H](C(=O)NCC#N)Cc3ccc(OCCN)c(c3)-c3cc2ccc3OCCN)c(C)c1 (single isomer, unassigned) [Compound 490-P1] | – | 0.068 (≈ 0.0783 µM) | – | MIC (μg/mL) S. aureus [1, 4]: 0.073 µg/mL (≈ 0.0841 µM); MIC (μg/mL) E. coli [3, 5]: 0.75 µg/mL (≈ 0.864 µM)
CCCCCCCc1ccc(C(=O)NC(CCNC)C(=O)N(C)[C@@H]2C(=O)N[C@@H](C)C(=O)N[C@H](C(=O)NCC#N)Cc3ccc(OCCN)c(c3)-c3cc2ccc3OCCN)c(C)c1 (single isomer, unassigned) [Compound 490-P2] | – | – | – | MIC (μg/mL) S. aureus [1, 4]: >0.50 µg/mL; MIC (μg/mL) E. coli IMP ([2]; 35° C., 22 hours): >0.13 µg/mL; MIC (μg/mL) E. coli [3, 5]: 8 µg/mL (≈ 9.22 µM)
CCCCCCCCCCCNC(=O)C(CCN)C(=O)N(C)[C@@H]1C(=O)N[C@@H](C)C(=O)N[C@H](C(=O)NCC#N)Cc2ccc(OCCN)c(c2)-c2cc1ccc2OCCN (single isomer, unassigned) [Compound 497-P1] | – | – | – | MIC (μg/mL) S. aureus [1, 4]: 0.063 µg/mL (≈ 0.0768 µM); MIC (μg/mL) E. coli IMP ([2]; 35° C., 22 hours): 0.016 µg/mL (≈ 0.0195 µM); MIC (μg/mL) E. coli [3, 5]: 2 µg/mL (≈ 2.44 µM)
CCCCCCCCCCCNC(=O)C(CCN)C(=O)N(C)[C@@H]1C(=O)N[C@@H](C)C(=O)N[C@H](C(=O)NCC#N)Cc2ccc(OCCN)c(c2)-c2cc1ccc2OCCN (single isomer, unassigned) [Compound 497-P2] | – | – | – | MIC (μg/mL) S. aureus [1, 4]: 1 µg/mL (≈ 1.22 µM); MIC (μg/mL) E. coli IMP ([2]; 35° C., 22 hours): 0.38 µg/mL (≈ 0.463 µM); MIC (μg/mL) E. coli [3, 5]: 24 µg/mL (≈ 29.3 µM)
CCCCCCc1ccc(C(=O)N2CCC(N)C[C@@H]2C(=O)N(C)[C@@H]2C(=O)N[C@@H](C)C(=O)N[C@H](C(=O)NCC#N)Cc3ccc(OCCN)c(c3)-c3cc2ccc3OCCN)c(C)c1 (single isomer, unassigned) [Compound 526-1] | 0.19 (≈ 0.219 µM) | 0.13 (≈ 0.15 µM) | 16 (≈ 18.5 µM) | –
CCCCCCc1ccc(C(=O)N2CCC(N)C[C@H]2C(=O)N(C)[C@@H]2C(=O)N[C@@H](C)C(=O)N[C@H](C(=O)NCC#N)Cc3ccc(OCCN)c(c3)-c3cc2ccc3OCCN)c(C)c1 (single isomer, unassigned) [Compound 526-2] | – | – | – | MIC (μg/mL) S. aureus [1, 4]: >0.5 µg/mL; MIC (μg/mL) E. coli IMP ([2]; 35° C., 22 hours): >0.13 µg/mL; MIC (μg/mL) E. coli [3, 5]: 64 µg/mL (≈ 73.9 µM)
C[C@@H]1NC(=O)[C@@H](N(C)C(=O)[C@H](CCN)NC(=O)c2ccc3c(c2)CCCC3)c2ccc(OCCN)c(c2)-c2cc(ccc2OCCN)C[C@@H](C(=O)NCC#N)NC1=O [Compound 119] | 1 (≈ 1.26 µM) | 0.25 (≈ 0.314 µM) | 16 (≈ 20.1 µM) | –
C[C@@H]1NC(=O)[C@@H](N(C)C(=O)[C@H](CCN)NC(=O)c2ccc3ccccc3c2)c2ccc(OCCN)c(c2)-c2cc(ccc2OCCN)C[C@@H](C(=O)NCC#N)NC1=O [Compound 125] | 2 (≈ 2.53 µM) | 0.25 (≈ 0.316 µM) | 16 (≈ 20.2 µM) | –
C[C@@H]1NC(=O)[C@@H](N(C)C(=O)[C@H](CCN)NC(=O)CCCC2CCCCC2)c2ccc(OCCN)c(c2)-c2cc(ccc2OCCN)C[C@@H](C(=O)NCC#N)NC1=O [Compound 126] | 0.5 (≈ 0.633 µM) | 0.25 (≈ 0.316 µM) | 32 (≈ 40.5 µM) | –
Cc1ccc(C(=O)N[C@@H](CCN)C(=O)N(C)[C@@H]2C(=O)N[C@@H](C)C(=O)N[C@H](C(=O)NCC#N)Cc3ccc(OCCN)c(c3)-c3cc2ccc3OCCN)c(C)c1 [Compound 128] | 4 (≈ 5.2 µM) | 0.5 (≈ 0.649 µM) | 16 (≈ 20.8 µM) | –
CCc1ccc(-c2ccc(C(=O)N[C@@H](CCCN)C(=O)N(C)[C@@H]3C(=O)N[C@@H](C)C(=O)N[C@H](C(=O)NCC#N)Cc4ccc(OCCN)c(c4)-c4cc3ccc4OCCN)c(C)c2)cc1 [Compound 152] | 0.031 (≈ 0.0355 µM) | 0.014 (≈ 0.016 µM) | 0.63 (≈ 0.721 µM) | –
Cc1nc(-c2ccc(C(C)(C)C)cc2)ncc1C(=O)N[C@@H](CCCN)C(=O)N(C)[C@@H]1C(=O)N[C@@H](C)C(=O)N[C@H](C(=O)NCC#N)Cc2ccc(OCCN)c(c2)-c2cc1ccc2OCCN [Compound 153] | – | – | – | MIC ([1]; read-out: MIC (μg/mL) S. aureus): 0.023 µg/mL (≈ 0.0254 µM); MIC ([2]; read-out: MIC (μg/mL) E. coli IMP): 0.0059 µg/mL (≈ 0.00653 µM); MIC ([3]; read-out: MIC (μg/mL) E. coli): 0.19 µg/mL (≈ 0.21 µM)
CCCCc1ccc(-c2ncc(C(=O)N[C@@H](CCCN)C(=O)N(C)[C@@H]3C(=O)N[C@@H](C)C(=O)N[C@H](C(=O)NCC#N)Cc4ccc(OCCN)c(c4)-c4cc3ccc4OCCN)c(C)n2)cc1 [Compound 154] | 0.012 (≈ 0.0133 µM) | 0.0059 (≈ 0.00653 µM) | 0.25 (≈ 0.277 µM) | –
CCCCc1ccc(-c2ncc(C(=O)N[C@@H](CCN)C(=O)N(C)[C@@H]3C(=O)N[C@@H](C)C(=O)N[C@H](C(=O)NCC#N)Cc4ccc(OCCN)c(c4)-c4cc3ccc4OCCN)c(C)n2)cc1 [Compound 156] | 0.016 (≈ 0.018 µM) | 0.0044 (≈ 0.00494 µM) | 0.063 (≈ 0.0708 µM) | –
Cc1nc(-c2ccc(-c3ccccc3)cc2)ncc1C(=O)N[C@@H](CCN)C(=O)N(C)[C@@H]1C(=O)N[C@@H](C)C(=O)N[C@H](C(=O)NCC#N)Cc2ccc(OCCN)c(c2)-c2cc1ccc2OCCN [Compound 158] | 0.031 (≈ 0.0341 µM) | 0.002 (≈ 0.0022 µM) | 0.11 (≈ 0.121 µM) | –
CCCc1ccc(-c2ncc(C(=O)N[C@@H](CCN)C(=O)N(C)[C@@H]3C(=O)N[C@@H](C)C(=O)N[C@H](C(=O)NCC#N)Cc4ccc(OCCN)c(c4)-c4cc3ccc4OCCN)c(C)n2)cc1 [Compound 161] | 0.031 (≈ 0.0354 µM) | 0.003 (≈ 0.00342 µM) | 0.13 (≈ 0.148 µM) | –
Cc1cc(-c2ccc(CC(C)C)cc2)ncc1C(=O)N[C@@H](CCN)C(=O)N(C)[C@@H]1C(=O)N[C@@H](C)C(=O)N[C@H](C(=O)NCC#N)Cc2ccc(OCCN)c(c2)-c2cc1ccc2OCCN [Compound 167] | 0.023 (≈ 0.0259 µM) | 0.0049 (≈ 0.00551 µM) | 0.14 (≈ 0.157 µM) | –
Cc1nc(-c2ccc(CC(C)C)cc2)ccc1C(=O)N[C@@H](CCN)C(=O)N(C)[C@@H]1C(=O)N[C@@H](C)C(=O)N[C@H](C(=O)NCC#N)Cc2ccc(OCCN)c(c2)-c2cc1ccc2OCCN [Compound 169] | 0.023 (≈ 0.0259 µM) | 0.0078 (≈ 0.00877 µM) | 0.13 (≈ 0.146 µM) | –
Cc1cc(-c2ccc(CC(C)C)cn2)ccc1C(=O)N[C@@H](CCN)C(=O)N(C)[C@@H]1C(=O)N[C@@H](C)C(=O)N[C@H](C(=O)NCC#N)Cc2ccc(OCCN)c(c2)-c2cc1ccc2OCCN [Compound 173] | 0.094 (≈ 0.106 µM) | 0.016 (≈ 0.018 µM) | 0.31 (≈ 0.349 µM) | –
C[C@@H]1NC(=O)[C@@H](N(C)C(=O)[C@H](CCN)NC(=O)c2cccc3ccccc23)c2ccc(OCCN)c(c2)-c2cc(ccc2OCCN)C[C@@H](C(=O)NCC#N)NC1=O [Compound 492] | 2 (≈ 2.53 µM) | – | – | MIC (μg/mL) S. aureus [1, 4]: 3 µg/mL (≈ 3.79 µM)
